Measurements as given in publication PMC7413254 (Nature Communications, 2020).
Where two headings read alike, the source gives them in different places.

Assays:
non-expressing oocytes [1] = assay: cells; type: cell-based, Xenopus laevis; settings: Xenopus laevis, total [3H]CQ transport; for inhibition at 500 µM: [test solute] = 0.5 mM; for inhibition at 1000 µM: [test solute] = 1 mM; for inhibition at 2000 µM: [test solute] = 2 mM
Outline: (§1)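 Assay buffer ND96 (10 mM MES, 10 mM Tris-base) held at pH 5.5 to mimic vacuole lumen; uptake measured inward from this acidic medium over 1.5 h at 27.5 °C.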

PfCRT^3D7 [2] = target: T1, PfCRT^3D7 (Plasmodium falciparum, UniProt Q8IBZ9); assay: cell-based; type: cell-based; settings: total [3H]CQ transport; for inhibition at 500 µM: [test solute] = 0.5 mM; for inhibition at 1000 µM: [test solute] = 1 mM; for inhibition at 2000 µM: [test solute] = 2 mM
T1 sequence (Q8IBZ9 59-398): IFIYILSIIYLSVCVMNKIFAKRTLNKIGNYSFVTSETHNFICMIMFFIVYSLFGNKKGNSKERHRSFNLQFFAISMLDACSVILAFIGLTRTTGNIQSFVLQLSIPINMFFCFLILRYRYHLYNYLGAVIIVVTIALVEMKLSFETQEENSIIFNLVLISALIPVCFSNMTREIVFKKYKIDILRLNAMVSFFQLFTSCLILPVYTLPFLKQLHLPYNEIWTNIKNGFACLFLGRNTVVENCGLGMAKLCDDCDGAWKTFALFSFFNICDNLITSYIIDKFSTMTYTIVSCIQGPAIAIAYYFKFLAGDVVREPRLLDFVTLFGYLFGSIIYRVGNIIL
Outline: as §1

PfCRT^Dd2 [3] = target: T2, PfCRT^Dd2 (Plasmodium falciparum, UniProt Q9N623, A220S/I356T/K76T/M74I/N326S/N75E/Q271E/R371I); assay: [3H]CQ uptake into Xenopus oocytes, cis-inhibition by unlabelled solute; type: cell-based
T2 sequence (Q9N623 whole entry A220S/I356T/K76T/M74I/N326S/N75E/Q271E/R371I): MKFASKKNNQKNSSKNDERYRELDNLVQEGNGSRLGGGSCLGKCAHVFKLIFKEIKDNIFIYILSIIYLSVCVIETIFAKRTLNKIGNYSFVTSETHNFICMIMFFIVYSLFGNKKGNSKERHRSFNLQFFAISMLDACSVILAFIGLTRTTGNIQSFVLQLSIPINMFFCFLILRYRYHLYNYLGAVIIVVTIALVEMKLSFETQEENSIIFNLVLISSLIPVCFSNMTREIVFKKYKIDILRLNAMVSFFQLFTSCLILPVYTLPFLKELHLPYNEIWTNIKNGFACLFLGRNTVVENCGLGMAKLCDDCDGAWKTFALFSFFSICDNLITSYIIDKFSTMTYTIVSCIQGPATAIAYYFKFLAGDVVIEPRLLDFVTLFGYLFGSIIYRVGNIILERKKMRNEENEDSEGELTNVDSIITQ
Outline: as §1

PfCRT^Ecu1110 [4] = target: T3, PfCRT^Ecu1110 (Plasmodium falciparum, UniProt Q9N623, A220S/I356L/K76T/N326D); assay: as above; type: cell-based
T3 sequence (Q9N623 whole entry A220S/I356L/K76T/N326D): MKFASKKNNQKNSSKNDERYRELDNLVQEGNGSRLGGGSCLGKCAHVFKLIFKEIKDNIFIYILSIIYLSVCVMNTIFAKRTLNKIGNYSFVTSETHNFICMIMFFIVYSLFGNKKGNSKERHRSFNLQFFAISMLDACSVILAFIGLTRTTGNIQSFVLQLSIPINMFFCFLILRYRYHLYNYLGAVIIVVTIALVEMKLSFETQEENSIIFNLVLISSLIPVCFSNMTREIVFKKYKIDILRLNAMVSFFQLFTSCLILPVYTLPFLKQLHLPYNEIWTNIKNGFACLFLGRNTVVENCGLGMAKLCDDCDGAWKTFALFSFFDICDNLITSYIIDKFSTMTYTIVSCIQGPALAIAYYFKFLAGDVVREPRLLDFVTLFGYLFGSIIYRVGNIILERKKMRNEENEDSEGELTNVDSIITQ
Outline: as §1

non-expressing oocytes [5] = type: cell-based, Xenopus laevis; settings: total [3H]CQ transport; for Uptake of [3H]CQ (% non-expressing oocyte control), trans-stimulation: non-expressing oocytes, normalised to the oocyte type control; for Uptake of [3H]CQ (% PfCRTDd2 control), trans-stimulation, non-expressing oocytes: mean ± SEM, SEM
Outline: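 Oocytes (ten per treatment, ≥4 independent frogs/days) were preloaded by injecting VF-6 in 25 nL ND96 at pH 5.0, 5.5, 6.0 or 7.0, or Na^+-free choline buffer, then uptake run 1.5 h, 27.5 °C, ND96 pH 5.5 by default. Internal concentrations assumed ~400 nL oocyte volume.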

PfCRT^3D7 [6] = target: T1, PfCRT^3D7; assay: cell-based; type: cell-based
Outline: (§2)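 Transport measured in Xenopus oocytes expressing the transporters, 1.5 h at 27.5 °C in ND96 pH 5.5 unless noted. For trans-stimulation, VF-6 injected in 25 nL ND96 at pH 5.0–7.0 or Na^+-free (choline) buffer; intracellular levels based on ~400 nL oocyte volume. Ten oocytes per treatment, ≥4 experiments.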

PfCRT^Dd2 [7] = target: T2, PfCRT^Dd2; assay: cell-based; type: cell-based; settings: […]; for activity at 45000 µM: [test solute]i = 45 mM (30 mM for some solutes due to solubility)
Outline: as §2

PfCRT^Ecu1110 [8] = target: T3, PfCRT^Ecu1110; assay: cell-based; type: cell-based; settings: […]
Outline: as §2

PfNT1 = target: T4, PfNT1 (Plasmodium falciparum, UniProt Q8IDM6); assay: cell-based; type: cell-based; settings: for activity at 5000 µM: total [3H]CQ transport
T4 construct: expressed in transfected cells; host or cells: Xenopus laevis oocytes (stage V-VI), cRNA-injected
T4 sequence (Q8IDM6 whole entry): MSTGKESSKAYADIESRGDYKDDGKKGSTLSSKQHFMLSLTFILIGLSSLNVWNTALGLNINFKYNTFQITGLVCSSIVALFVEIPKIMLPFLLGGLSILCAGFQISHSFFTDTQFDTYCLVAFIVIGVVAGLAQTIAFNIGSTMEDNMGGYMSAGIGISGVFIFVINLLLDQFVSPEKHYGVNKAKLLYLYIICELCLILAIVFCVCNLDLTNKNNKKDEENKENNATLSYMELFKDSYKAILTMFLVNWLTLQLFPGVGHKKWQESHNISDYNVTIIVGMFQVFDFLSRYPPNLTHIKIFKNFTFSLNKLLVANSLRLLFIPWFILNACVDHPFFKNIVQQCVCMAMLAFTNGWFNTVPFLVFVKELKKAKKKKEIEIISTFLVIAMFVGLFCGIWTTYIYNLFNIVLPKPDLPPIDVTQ
Outline: as §2

PfCRT [9] = assay: Influx of VF-6 via PfCRT into the oocyte, solutes tested as potential co-substrates; type: cell-based, Plasmodium falciparum; design: key: X: Compounds that have been tested as potential co-substrates but are not required for influx of VF-6 via PfCRT into the oocyte; settings: X marks the solute
PfCRT [10] = assay: Test of solutes as potential co-substrates for influx of VF-6 via PfCRT into the oocyte; type: cell-based, Plasmodium falciparum; design: key: X: Compounds that have been tested as potential co-substrates but are not required for influx of VF-6 via PfCRT into the oocyte; settings: X = tested
[11] = Oocyte, mean ± SEM, SEM, read-out: Uptake of [3H]CQ (% PfCRTDd2 control), cis-inhibition, non-expressing oocytes
[12] = non-expressing oocytes, normalised to the oocyte type control, read-out: Uptake of [3H]CQ (% non-expressing oocyte control), cis-inhibition
[13] = PfCRT3D7 oocytes, normalised to the oocyte type control, read-out: Uptake of [3H]CQ (% PfCRT3D7 control), cis-inhibition
[14] = mean ± SEM, SEM, read-out: Uptake of [3H]CQ (% PfCRTDd2 control), cis-inhibition, PfCRT3D7
[15] = read-out: PfCRT-mediated [3H]CQ transport, cis-inhibition (% PfCRTDd2 control)
[16] = read-out: Uptake of [3H]CQ (% PfCRTDd2 control), cis-inhibition, PfCRTDd2, SEM
[17] = read-out: PfCRT-mediated [3H]CQ transport, cis-inhibition (% PfCRTEcu1110 control)
[18] = read-out: Uptake of [3H]CQ (% PfCRTDd2 control), cis-inhibition, PfCRTEcu1110, SEM
[19] = read-out: Uptake of [3H]CQ (% PfCRTEcu1110 control), cis-inhibition
[20] = read-out: [3H]CQ transport (% PfCRTEcu1110 control), cis-inhibition, PfCRTEcu1110, SEM

Compound: N[C@@H](CO)C(=O)O [L-serine]
- inhibition at 500 µM (non-expressing oocytes [1]; [11]): 2.9 ± 0.06%
- inhibition at 1000 µM (non-expressing oocytes [1]; [11]): 3.6 ± 0.09%
- inhibition at 2000 µM (non-expressing oocytes [1]; [11]): 3.2 ± 0.1%
- inhibition at 500 µM (non-expressing oocytes [1]; [12]): 100 ± 4.3%
- inhibition at 1000 µM (non-expressing oocytes [1]; [12]): 99 ± 3.7%
- inhibition at 2000 µM (non-expressing oocytes [1]; [12]): 99 ± 5.2%
- inhibition at 500 µM (PfCRT^3D7 [2]; [13]): 98 ± 3.1%
- inhibition at 1000 µM (PfCRT^3D7 [2]; [13]): 100 ± 3.6%
- inhibition at 2000 µM (PfCRT^3D7 [2]; [13]): 98 ± 3.6%
- inhibition at 500 µM (PfCRT^3D7 [2]; [14]): 3.1 ± 0.06%
- inhibition at 1000 µM (PfCRT^3D7 [2]; [14]): 2.2 ± 0.03%
- inhibition at 2000 µM (PfCRT^3D7 [2]; [14]): 2.6 ± 0.08%
- inhibition at 500 µM (PfCRT^Dd2 [3]; [15]): 99 ± 4.6%
- inhibition at 2000 µM (PfCRT^Dd2 [3]; [15]): 94 ± 2.1%
- inhibition at 500 µM (PfCRT^Dd2 [3]; [16]): 101 ± 3.3%
- inhibition at 1000 µM (PfCRT^Dd2 [3]; [16]): 98 ± 2.6%
- inhibition at 2000 µM (PfCRT^Dd2 [3]; [16]): 96 ± 3.5%
- inhibition at 500 µM (PfCRT^Ecu1110 [4]; [17]): 97 ± 1.5%
- inhibition at 1000 µM (PfCRT^Ecu1110 [4]; [17]): 97 ± 3.5%
- inhibition at 2000 µM (PfCRT^Ecu1110 [4]; [17]): 98 ± 3.2%
- inhibition at 500 µM (PfCRT^Ecu1110 [4]; [18]): 32 ± 1.9%
- inhibition at 1000 µM (PfCRT^Ecu1110 [4]; [18]): 32 ± 2.1%
- inhibition at 2000 µM (PfCRT^Ecu1110 [4]; [18]): 33 ± 1.8%
- inhibition at 500 µM (PfCRT^Ecu1110 [4]; [19]): 101 ± 2.2%
- inhibition at 1000 µM (PfCRT^Ecu1110 [4]; [19]): 101 ± 1.7%
- inhibition at 2000 µM (PfCRT^Ecu1110 [4]; [19]): 100 ± 2.2%
- inhibition at 500 µM (PfCRT^Ecu1110 [4]; [20]): 29 ± 1.7%
- inhibition at 1000 µM (PfCRT^Ecu1110 [4]; [20]): 29 ± 1.1%
- inhibition at 2000 µM (PfCRT^Ecu1110 [4]; [20]): 30 ± 0.6%
- Uptake of [3H]CQ (% non-expressing oocyte control), trans-stimulation (non-expressing oocytes [5]; [test solute]i = 5 mM): 100 ± 3.1 % non-expressing oocyte control
- Uptake of [3H]CQ (% non-expressing oocyte control), trans-stimulation (non-expressing oocytes [5]; [test solute]i = 45 mM (30 mM for some solutes due to solubility)): 101 ± 2.8 % non-expressing oocyte control
- Uptake of [3H]CQ (% PfCRTDd2 control), trans-stimulation, non-expressing oocytes (non-expressing oocytes [5]; [test solute]i = 5 mM (intracellular)): 2.8 ± 0.03 % PfCRTDd2 control
- Uptake of [3H]CQ (% PfCRTDd2 control), trans-stimulation, non-expressing oocytes (non-expressing oocytes [5]; [test solute]i = 45 mM (intracellular; 30 mM for some solutes due to solubility)): 2.2 ± 0.01 % PfCRTDd2 control
- activity at 5000 µM (PfCRT^3D7 [6]; PfCRT3D7 oocytes, [test solute]i = 5 mM, total [3H]CQ transport, normalised to the oocyte type control, read-out: Uptake of [3H]CQ (% PfCRT3D7 control), trans-stimulation): 100 ± 3.6%
- [3H]CQ transport (% PfCRT3D7 control), trans-stimulation, PfCRT3D7 (PfCRT^3D7 [6]; SEM): 0.3 ± 0.01 % PfCRT3D7 control
- activity at 5000 µM (PfCRT^3D7 [6]; [test solute]i = 5 mM (intracellular), PfCRT3D7 oocytes, normalised to oocyte type control, read-out: PfCRT-mediated [3H]CQ transport, trans-stimulation (% PfCRT3D7 control)): 98 ± 4.1%
- activity at 45000 µM (PfCRT^3D7 [6]; SEM, read-out: Uptake of [3H]CQ (% PfCRTDd2 control), trans-stimulation, PfCRT3D7): 3.3 ± 0.06%
- activity at 45000 µM (PfCRT^3D7 [6]; read-out: PfCRT-mediated [3H]CQ transport, trans-stimulation (% PfCRT3D7 control)): 97 ± 4.5%
- activity at 45000 µM (PfCRT^3D7 [6]; read-out: Uptake of [3H]CQ (% PfCRT3D7 control), trans-stimulation): 99 ± 3.7%
- activity at 5000 µM (PfCRT^3D7 [6]; total [3H]CQ transport, [test solute]i = 5 mM (intracellular), mean ± SEM, SEM, read-out: Uptake of [3H]CQ (% PfCRTDd2 control), trans-stimulation, PfCRT3D7): 3.3 ± 0.06%
- activity at 5000 µM (PfCRT^Dd2 [7]; pH 5.5, read-out: PfCRT-mediated [3H]CQ transport, trans-stimulation (% PfCRTDd2 control), [test solute]i = 5 mM (intracellular), PfCRTDd2 oocytes, normalised to oocyte type control): 97 ± 4.4%
- activity at 5000 µM (PfCRT^Dd2 [7]; pH 5.5, read-out: Uptake of [3H]CQ (% PfCRTDd2 control), trans-stimulation, PfCRTDd2, total [3H]CQ transport, [test solute]i = 5 mM (intracellular), mean ± SEM, SEM): 99 ± 3.2%
- activity at 5000 µM (PfCRT^Dd2 [7]; pH 5.5, read-out: Uptake of [3H]CQ (% PfCRTDd2 control), trans-stimulation, PfCRTDd2 oocytes, [test solute]i = 5 mM, total [3H]CQ transport, normalised to the oocyte type control): 99 ± 3.2%
- activity at 45000 µM (PfCRT^Dd2 [7]; pH 5.5, read-out: Uptake of [3H]CQ (% PfCRTDd2 control), trans-stimulation, PfCRTDd2 oocytes, total [3H]CQ transport, normalised to the oocyte type control): 100 ± 2.9%
- activity at 5000 µM (PfCRT^Dd2 [7]; pH 5.5, read-out: [3H]CQ transport (% PfCRTDd2 control), trans-stimulation, PfCRTDd2, trans-stimulation, [test solute]i = 5 mM (injected), PfCRT-mediated component (background subtracted), mean ± SEM, SEM): 97 ± 4.4%
- activity at 45000 µM (PfCRT^Dd2 [7]; pH 5.5, read-out: [3H]CQ transport (% PfCRTDd2 control), trans-stimulation, PfCRTDd2, trans-stimulation, PfCRT-mediated component (background subtracted), mean ± SEM, SEM): 98 ± 3.6%
- activity at 5000 µM (PfCRT^Ecu1110 [8]; pH 5.5, read-out: PfCRT-mediated [3H]CQ transport, trans-stimulation (% PfCRTEcu1110 control), [test solute]i = 5 mM (intracellular), PfCRTEcu1110 oocytes, normalised to oocyte type control): 98 ± 3.1%
- activity at 5000 µM (PfCRT^Ecu1110 [8]; pH 5.5, read-out: Uptake of [3H]CQ (% PfCRTEcu1110 control), trans-stimulation, PfCRTEcu1110 oocytes, [test solute]i = 5 mM, total [3H]CQ transport, normalised to the oocyte type control): 100 ± 2.5%
- activity at 45000 µM (PfCRT^Ecu1110 [8]; pH 5.5, read-out: Uptake of [3H]CQ (% PfCRTEcu1110 control), trans-stimulation, PfCRTEcu1110 oocytes, [test solute]i = 45 mM (30 mM for some solutes due to solubility), total [3H]CQ transport, normalised to the oocyte type control): 98 ± 3.1%
- activity at 5000 µM (PfCRT^Ecu1110 [8]; read-out: Uptake of [3H]CQ (% PfCRTDd2 control), trans-stimulation, PfCRTEcu1110, total [3H]CQ transport, [test solute]i = 5 mM (intracellular), mean ± SEM, SEM): 36 ± 1.7%
- activity at 45000 µM (PfCRT^Ecu1110 [8]; read-out: Uptake of [3H]CQ (% PfCRTDd2 control), trans-stimulation, PfCRTEcu1110, total [3H]CQ transport, [test solute]i = 45 mM (intracellular; 30 mM for some solutes due to solubility), mean ± SEM, SEM): 35 ± 1.6%
- activity at 5000 µM (PfNT1; PfNT1 oocytes, [test solute]i = 5 mM, normalised to the oocyte type control, read-out: Uptake of [3H]CQ (% PfNT1 control), trans-stimulation): 98 ± 2.6%
- activity at 45000 µM (PfNT1; SEM, read-out: Uptake of [3H]CQ (% PfCRTDd2 control), trans-stimulation, PfNT1): 2.3 ± 0.06%
- activity at 45000 µM (PfNT1; read-out: Uptake of [3H]CQ (% PfNT1 control), trans-stimulation): 98 ± 2.6%
- activity at 5000 µM (PfNT1; [test solute]i = 5 mM (intracellular), mean ± SEM, SEM, read-out: Uptake of [3H]CQ (% PfCRTDd2 control), trans-stimulation, PfNT1): 3 ± 0.02%
- Compounds that have been tested as potential co-substrates but are not required for influx of VF-6 via PfCRT into the oocyte (PfCRT [9]): X
- Tested as potential co-substrate but not required for influx of VF-6 via PfCRT into the oocyte (PfCRT [10]): X
